# Laboratory results: patent US9045482B2, “Pyrido[4,3-B]indoles and methods of use” (Medivation Technologies, Inc., priority 2009, dated 2015)
# Assays:
# [1] = molecular target: human recombinant histamine H1 receptor (Homo sapiens, UniProt P35367); assay: Histamine H1 radioligand binding ([3H]Pyrilamine); conditions: 1 μM; for inhibition at 1 µM: read-out: Binding data (Percentage Inhibition) Histamine Binding H1
# Procedure: To evaluate in radioligand binding assays the activity of compounds of the invention, human recombinant histamine H1 receptor expressed in Chinese hamster ovary (CHO) cells [De Backer, M. et al., Biochem. Biophys. Res. Comm. (1993), 197(3):1601] in a modified Tris-HCl buffer (50 mM Tris-HCl, pH 7.4, 2 mM MgCl2, 100 mM NaCl, 250 mM Sucrose) was used. Compounds of the invention were incubated with 1.2 nM [^3H]Pyrilamine for 180 min at 25° C. Non-specific binding was estimated in the presence of 1 μM pyrilamine. Receptor proteins were filtered and washed, the filters were then counted to determine [^3H]Pyrilamine specifically bound. Compounds were screened at 1 μM or lower, using 1% DMSO as vehicle. Biochemical assay results are presented as the percent inhibition of specific binding in Table 2.
# [2] = molecular target: T1, human recombinant serotonin (5-Hydroxytryptamine) 5-HT2A receptor (Homo sapiens, UniProt P28223); assay: Serotonin 5-HT2A radioligand binding ([3H]Ketanserin)
# T1 construct: expressed in transfected cells; host or cells: Chinese hamster ovary (CHO-K1) cells
# Procedure: (§1) (1997), 68:1998] in a 50 mM Tris-HCl buffer, pH 7.4, was used. Compounds of the invention were incubated with 0.5 nM [^3H]Ketanserin for 60 min at 25° C. Non-specific binding was estimated in the presence of 1 μM Mianserin. Receptor proteins were filtered and washed, the filters were then counted to determine [^3H]Ketanserin specifically bound. Compounds were screened at 1 μM or lower, using 1% DMSO as vehicle. Biochemical assay results are presented as the percent inhibition of specific binding in Table 4.
# [3] = molecular target: human recombinant dopamine D2L receptor (Homo sapiens, UniProt P14416); assay: Dopamine D2L radioligand binding ([3H]Spiperone)
# Procedure: To evaluate in radioligand binding assays the activity of compounds of the invention, human recombinant dopamine D2L receptor expressed in Chinese hamster ovary (CHO) cells [Grandy, D. K. et al., Proc. Natl. Acad. Sci. USA. (1989), 86:9762; Hayes, G. et al., Mol. Endocrinol. […] Compounds of the invention were incubated with 0.16 nM [^3H]Spiperone for 120 min at 25° C. Non-specific binding was estimated in the presence of 10 μM Haloperidol. Receptor proteins were filtered and washed, the filters were then counted to determine [^3H]Spiperone specifically bound. Compounds were screened at 1 μM or lower, using 1% DMSO as vehicle. Biochemical assay results are presented as the percent inhibition of specific binding in Table 3.
# [4] = molecular target: T2, human recombinant serotonin (5-Hydroxytryptamine) 5-HT2C receptor (Homo sapiens, UniProt P28335); assay: Serotonin 5-HT2C radioligand binding ([3H]Mesulergine)
# T2 construct: expressed in transfected cells; host or cells: Chinese hamster ovary (CHO-K1) cells
# T2 sequence (P28335 33-458): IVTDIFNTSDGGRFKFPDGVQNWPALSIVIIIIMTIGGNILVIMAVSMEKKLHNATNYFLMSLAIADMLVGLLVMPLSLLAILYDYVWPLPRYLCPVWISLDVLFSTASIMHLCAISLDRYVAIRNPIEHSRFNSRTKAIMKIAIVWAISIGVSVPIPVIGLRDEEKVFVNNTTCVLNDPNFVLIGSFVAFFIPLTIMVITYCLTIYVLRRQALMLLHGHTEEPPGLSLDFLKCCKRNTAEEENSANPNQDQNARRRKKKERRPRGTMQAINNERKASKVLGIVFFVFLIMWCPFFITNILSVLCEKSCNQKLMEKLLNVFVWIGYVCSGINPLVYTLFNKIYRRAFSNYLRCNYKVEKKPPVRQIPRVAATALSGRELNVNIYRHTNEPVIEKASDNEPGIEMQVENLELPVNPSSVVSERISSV
# Procedure: as §1, with “69:1449]” for “68:1998]”, “modified Tris-HCl buffer (50” for “50”, “Tris-HCl,” for “Tris-HCl buffer,”, “7.4, 0.1% Ascorbic Acid, 10 μM Pargyline)” for “7.4,”, “1” for “0.5”, “[^3H]Mesulergine” for “[^3H]Ketanserin”
# [5] = molecular target: T3, human recombinant serotonin (5-Hydroxytryptamine) 5-HT6 receptor (Homo sapiens, UniProt P50406); assay: Serotonin 5-HT6 radioligand binding ([3H]LSD)
# T3 construct: expressed in transfected cells; host or cells: human HeLa cells
# Procedure: (§2) Compounds of the invention were incubated with 1.5 nM [3H]Lysergic acid diethylamide (LSD) for 120 min at 37° C. […] Receptor proteins were filtered and washed, the filters were then counted to determine [3H]LSD specifically bound. Compounds were screened at 1 μM or lower, using 1% DMSO as vehicle. Biochemical assay results are presented as the percent inhibition of specific binding in Table 4.
# [6] = molecular target: human recombinant serotonin (5-Hydroxytryptamine) 5-HT7 receptor (Homo sapiens, UniProt P34969); assay: Serotonin 5-HT7 radioligand binding ([3H]LSD)
# Procedure: as §2, with “of” for “of the”, “5.5” for “1.5”, “[^3H]Lysergic” for “[3H]Lysergic”, “2 h” for “120 min”, “25°” for “37°”, “[^3H]LSD” for “[3H]LSD”
# [7] = molecular target: T4, human recombinant histamine H2 receptor (Homo sapiens, UniProt P25021); assay: Histamine H2 radioligand binding (Aminopotentidine); conditions: read-out: Binding data (Percentage Inhibition) Histamine Binding H2
# T4 construct: expressed in transfected cells; host or cells: Chinese hamster ovary (CHO) K1 cells
# Procedure: To evaluate in radioligand binding assays the activity of compounds of the invention, human recombinant histamine H2 receptor expressed in Chinese hamster ovary (CHO) K1 cells [Ruat, M., Proc. Natl. Acad. Sci. USA. (1990), 87(5):1658] in a 50 mM Phosphate buffer, pH 7.4 was used. Compounds of the invention were incubated with 0.1 nM […] for 120 min at 25° C. Non-specific binding was estimated in the presence of 3 μM Tiotidine. Receptor proteins were filtered and washed, the filters were then counted to determine […] specifically bound. Compounds were screened at 1 μM or lower, using 1% DMSO as vehicle. Biochemical assay results are presented as the percent inhibition of specific binding in Table 2.
# T3 sequence (P50406 whole entry): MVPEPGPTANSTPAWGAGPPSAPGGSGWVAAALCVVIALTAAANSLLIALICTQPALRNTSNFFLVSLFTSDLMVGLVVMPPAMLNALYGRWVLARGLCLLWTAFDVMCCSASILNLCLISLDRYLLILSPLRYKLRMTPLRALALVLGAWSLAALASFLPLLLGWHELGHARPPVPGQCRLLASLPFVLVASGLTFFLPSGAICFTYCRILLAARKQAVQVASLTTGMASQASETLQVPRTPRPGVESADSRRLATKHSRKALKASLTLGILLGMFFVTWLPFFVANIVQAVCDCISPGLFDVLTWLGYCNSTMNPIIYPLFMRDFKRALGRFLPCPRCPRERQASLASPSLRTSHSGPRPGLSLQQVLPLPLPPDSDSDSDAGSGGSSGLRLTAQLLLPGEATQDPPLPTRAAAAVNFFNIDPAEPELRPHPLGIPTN
# T1 sequence (P28223 whole entry): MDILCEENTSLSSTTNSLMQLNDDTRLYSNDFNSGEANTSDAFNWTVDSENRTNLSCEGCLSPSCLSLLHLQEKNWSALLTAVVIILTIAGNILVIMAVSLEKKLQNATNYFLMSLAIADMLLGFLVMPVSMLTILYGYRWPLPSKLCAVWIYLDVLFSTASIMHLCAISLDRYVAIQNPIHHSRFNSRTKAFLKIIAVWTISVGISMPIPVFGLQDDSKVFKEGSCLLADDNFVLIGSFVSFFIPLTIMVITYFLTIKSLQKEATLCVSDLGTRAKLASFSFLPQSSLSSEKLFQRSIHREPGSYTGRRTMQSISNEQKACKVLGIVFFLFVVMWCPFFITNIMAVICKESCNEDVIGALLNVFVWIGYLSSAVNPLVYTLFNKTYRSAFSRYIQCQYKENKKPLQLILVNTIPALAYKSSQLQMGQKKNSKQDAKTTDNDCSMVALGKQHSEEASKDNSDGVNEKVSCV
# T4 sequence (P25021 whole entry): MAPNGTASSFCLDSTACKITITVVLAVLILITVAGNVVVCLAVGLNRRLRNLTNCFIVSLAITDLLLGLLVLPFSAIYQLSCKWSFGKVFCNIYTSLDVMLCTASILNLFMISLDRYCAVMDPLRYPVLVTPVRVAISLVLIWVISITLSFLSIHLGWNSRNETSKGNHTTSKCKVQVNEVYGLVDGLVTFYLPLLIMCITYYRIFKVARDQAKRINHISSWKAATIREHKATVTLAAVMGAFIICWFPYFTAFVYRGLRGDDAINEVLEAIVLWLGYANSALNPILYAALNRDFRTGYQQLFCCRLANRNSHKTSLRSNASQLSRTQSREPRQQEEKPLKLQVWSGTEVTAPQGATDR
# human recombinant dopamine D2L receptor, sequence (P14416 whole entry): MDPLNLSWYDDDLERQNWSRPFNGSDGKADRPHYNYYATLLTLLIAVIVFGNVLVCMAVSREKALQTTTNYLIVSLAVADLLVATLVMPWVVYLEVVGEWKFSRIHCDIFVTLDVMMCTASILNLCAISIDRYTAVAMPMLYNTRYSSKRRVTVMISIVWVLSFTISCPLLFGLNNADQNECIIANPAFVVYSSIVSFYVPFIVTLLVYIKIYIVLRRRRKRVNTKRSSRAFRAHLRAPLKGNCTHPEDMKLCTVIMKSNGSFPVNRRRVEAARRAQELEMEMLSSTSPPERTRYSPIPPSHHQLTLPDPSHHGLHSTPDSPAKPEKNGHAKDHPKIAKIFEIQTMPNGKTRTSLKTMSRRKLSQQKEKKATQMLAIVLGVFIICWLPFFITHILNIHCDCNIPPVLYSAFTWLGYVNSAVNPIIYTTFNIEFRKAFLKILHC
# human recombinant histamine H1 receptor, sequence (P35367 whole entry): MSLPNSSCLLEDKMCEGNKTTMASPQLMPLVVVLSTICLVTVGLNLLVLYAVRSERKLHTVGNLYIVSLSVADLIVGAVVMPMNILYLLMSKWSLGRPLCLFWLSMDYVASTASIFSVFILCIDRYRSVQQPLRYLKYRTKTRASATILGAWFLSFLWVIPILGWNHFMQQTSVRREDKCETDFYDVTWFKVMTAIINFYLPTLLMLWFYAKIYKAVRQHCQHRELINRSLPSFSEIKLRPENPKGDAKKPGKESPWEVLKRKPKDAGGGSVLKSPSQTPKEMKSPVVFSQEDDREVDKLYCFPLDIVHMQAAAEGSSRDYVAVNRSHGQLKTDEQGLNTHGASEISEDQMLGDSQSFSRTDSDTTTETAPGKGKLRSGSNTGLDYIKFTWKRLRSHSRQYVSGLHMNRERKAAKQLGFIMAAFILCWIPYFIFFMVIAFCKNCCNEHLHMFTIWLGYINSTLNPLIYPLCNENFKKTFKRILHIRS
# human recombinant serotonin (5-Hydroxytryptamine) 5-HT7 receptor, sequence (P34969 whole entry): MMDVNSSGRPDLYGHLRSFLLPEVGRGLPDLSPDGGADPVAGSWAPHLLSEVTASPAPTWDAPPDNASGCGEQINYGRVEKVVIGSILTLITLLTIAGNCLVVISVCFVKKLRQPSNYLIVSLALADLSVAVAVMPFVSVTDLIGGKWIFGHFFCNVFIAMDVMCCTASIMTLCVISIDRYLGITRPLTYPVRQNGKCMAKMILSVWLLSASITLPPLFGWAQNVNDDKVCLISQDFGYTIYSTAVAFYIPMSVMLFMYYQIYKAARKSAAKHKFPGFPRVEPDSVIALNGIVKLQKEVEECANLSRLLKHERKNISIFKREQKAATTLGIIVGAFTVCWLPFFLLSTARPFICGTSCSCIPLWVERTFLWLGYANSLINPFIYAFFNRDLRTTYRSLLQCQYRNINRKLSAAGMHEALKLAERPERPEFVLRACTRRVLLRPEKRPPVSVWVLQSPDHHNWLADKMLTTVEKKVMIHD
SMILES,inhibition at 1 µM [1] [%],Percent Inhibition of ligand binding Serotonin 5-HT2A ([2]; 1 μM ligand concentration) [%],Percent Inhibition of ligand binding Dopamine D2L ([3]; 1 μM ligand conc.) [%],Percent Inhibition of ligand binding Serotonin 5-HT2C ([4]; 1 μM ligand concentration) [%],Percent Inhibition of ligand binding Serotonin 5-HT6 ([5]; 1 μM ligand concentration) [%],Percent Inhibition of ligand binding Serotonin 5-HT7 ([6]; 1 μM ligand concentration) [%],inhibition at 1 µM [7] [%],Binding data (Percentage Inhibition) Histamine Binding H1 [1] [%],Percent Inhibition of ligand binding Serotonin 5-HT2A ([2]; 0.1 μM ligand concentration) [%],Percent Inhibition of ligand binding Dopamine D2L ([3]; 0.1 μM ligand conc.) [%],Percent Inhibition of ligand binding Serotonin 5-HT2C ([4]; 0.1 μM ligand concentration) [%],Percent Inhibition of ligand binding Serotonin 5-HT6 ([5]; 0.1 μM ligand concentration) [%],Percent Inhibition of ligand binding Serotonin 5-HT7 ([6]; 0.1 μM ligand concentration) [%]
"CC(=Cn1c2c(c3cc(C)ccc31)CN1CCCC1C2)c1ccc(F)cc1 (stereo in doubt) [Compound 3, (E)-10-(2-(4-fluorophenyl)prop-1-enyl)-7-methyl-2,3,5,10,11,11a-hexahydro-1H-indolizino [7,6-b]indole]",88,90,11,99,101,94,97,,,,,,
"CC(=Cn1c2c(c3cc(C)ccc31)C1CCCN1CC2)c1ccc(F)cc1 (stereo in doubt) [Compound 4, (E)-7-(2-(4-fluorophenyl)prop-1-enyl)-10-methyl-2,3,5,6,7,11c-hexahydro-1H-indolizino[7,8-b]indole]",41,99,90,99,103,101,75,53,87,59,88,100,
"CC(=Cn1c2c(c3cc(C)ccc31)CN1CCCCC1C2)c1ccc(F)cc1 (stereo in doubt) [Compound 5, (E)-5-(2-(4-fluorophenyl)prop-1-enyl)-2-methyl-5,6,6a,7,8,9,10,12-octahydroindolo[2,3-b]quinolizine]",76,98,28,92,96,97,97,,,,,,
"CC(=Cn1c2c(c3cc(C)ccc31)C1CCCCN1CC2)c1ccc(F)cc1 (stereo in doubt) [Compound 6, (E)-8-(2-(4-fluorophenyl)prop-1-enyl)-11-methyl-1,2,3,4,6,7,8,12c-octahydroindolo[3,2-a]quinolizine]",28,99,94,94,105,92,67,,,,,,
"FC(F)(F)c1ccc(CCn2c3c(c4cccnc42)CN2CCCC2C3)cn1 (stereo not drawn) [Compound 39, 11-(2-(6-(trifluoromethyl)pyridin-3-yl)ethyl)-7,8,9,9a,10,11-hexahydro-5H-pyrido[3′,2′:4,5]pyrrolo[3,2-f]indolizine]",,,,,,,,,24,,,−5,2
"FC(F)(F)c1ccc(CCn2c3c(c4cccnc42)C2CCCN2CC3)cn1 (stereo not drawn) [Compound 40, 7-(2-(6-(trifluoromethyl)pyridin-3-yl)ethyl)-2,3,5,6,7,11c-hexahydro-1H-pyrido[3′,2′:4,5]pyrrolo[2,3-g]indolizine]",,,,,,,,,6,,,1,10
"Cc1cnc2c(c1)c1c(n2CCc2ccc(C(F)(F)F)nc2)CCN2CCCC12 (stereo not drawn) [Compound 43, 10-methyl-7-(2-(6-(trifluoromethyl)pyridin-3-yl)ethyl)-2,3,5,6,7,11c-hexahydro-1H-pyrido[3′,2′:4,5]pyrrolo[2,3-g]indolizine]",,,,,,,,,7,,,5,22
"Cc1cnc2c(c1)c1c(n2CCc2ccc(C(F)(F)F)nc2)CC2CCCN2C1 (stereo not drawn) [Compound 44, 3-methyl-11-(2-(6-(trifluoromethyl)pyridin-3-yl)ethyl)-7,8,9,9a,10,11-hexahydro-5H-pyrido[3′,2′:4,5]pyrrolo[3,2-f]indolizine]",,,,,,,,,65,,,9,24
